Data on seven molecules can be found in patent publication US8633209B2, “Hydrobromide salts of a pyrazolylaminoquinazoline” (Ambit Biosciences Corporation, priority 2010, dated 2014).

Entries after “also recorded” stand apart in the source; their conditions may differ. Where two headings read alike, the source gives them in different places. A value given as a limit tells only on which side of the number the result lay.

Common to all, as to type: physicochemical
Data set [1] can be described thus: Heat and vapor stress (vacuum drying, RH jar) with XRPD analysis of the resulting solid form. Particulars: for XRPD Results after vapor stress: ~94% RH vapor stress at RT for ~3 days; for Result of vacuum drying (Additional Information): temperature and time not stated in Table V. As for the experimental part:
X-ray powder diffraction analyses were performed using an Inel XRG-3000 diffractometer equipped with a CPS (Curved Position Sensitive) detector with a 2θ range of 120°. Real time data were collected using CuKα radiation at a resolution of 0.03° 2θ. The tube voltage and amperage were set to 40 kV and 30 mA, respectively. The monochromator slit was set at 5 mm by 160 μm. […] Samples were prepared into thin-walled glass capillaries for analysis. Each capillary was mounted onto a goniometer head that was motorized to permit spinning of the capillary during data acquisition. The samples were analyzed for 300 seconds. Instrument calibration was performed using a silicon reference standard.
Samples were placed in a RH jar of specified relative humidity at ambient temperature or elevated temperature for a given amount of time. Samples were placed in heating/vacuum oven at specified temperature for thermal stressing.

Data set [2] is described as follows: Solubility of the HBr salt of Form A in selected solvents, estimated by solvent addition under ambient conditions. As for the experimental part: The solubility of the HBr salt of Form A in selected solvents was estimated by solvent addition under ambient conditions to provide preliminary information for the polymorph screen. […] This material is sparingly soluble in methanol, methanol/chloroform (1:1), and methanol/tetrahydrofuran (˜14-20 mg/mL).

Data set [3] can be described thus: Moisture sorption/desorption (VTI SGA-100 Vapor Sorption Analyzer, 5% to 95% RH). The note with it: for Hygroscopicity (moisture sorption data are consistent with): 5% to 95% RH; for Weight gain upon increase in relative humidity: from ~5% to ~95% RH; for Weight loss upon decrease in relative humidity: from ~95% to ~5% RH. As for the experimental part: Moisture soption/desorption data were collected on a VTI SGA-100 Vapor Sorption Analyzer. Sorption and desorption data were collected over a range of 5% to 95% relative humidity (RH) at 10% RH intervals under a nitrogen purge. Samples were not dried prior to analysis. Equilibrium criteria used for analysis were less than 0.0100% weight change in 5 min, with a maximum equilibration time of 3 hrs if the weight criterion was not met. Data were not corrected for the initial moisture content of the samples. NaCl and PVP were used as calibration standards.

With `Cc1cc(Nc2nc(C(O)c3ccc(F)cc3)nc3ccccc23)n[nH]1` (centres unmarked) [Disordered Form A, (4-fluorophenyl)(4-(5-methyl-1H-pyrazol-3-ylamino)quinazolin-2-yl)methanol], the “XRPD Results after vapor stress” value in data set [1] is “Disordered A”; in data set [1] (listed as disordered Form A) it was “remained disordered”.

As to `Cc1cc(Nc2nc(C(O)c3ccc(F)cc3)nc3ccccc23)n[nH]1` (centres unmarked) [Form A, (4-fluorophenyl)(4-(5-methyl-1H-pyrazol-3-ylamino)quinazolin-2-yl)methanol], the solubility in data set [2] (DMF/water (1:1), aqueous with cosolvent or surfactant or cyclodextrin, thermodynamic from solid, solvent DMF/water (1:1), read-out: Solubility) was 30000 µg/mL; in data set [2] (DMF/water (1:2), aqueous with cosolvent or surfactant or cyclodextrin, thermodynamic from solid, solvent DMF/water (1:2), read-out: Solubility), 4000 µg/mL; in data set [2] (DMF/water (1:4), aqueous with cosolvent or surfactant or cyclodextrin, thermodynamic from solid, solvent DMF/water (1:4), read-out: Solubility), less than 2000 µg/mL; in data set [2] (DMF/water (1:9), aqueous with cosolvent or surfactant or cyclodextrin, thermodynamic from solid, solvent DMF/water (1:9), read-out: Solubility), less than 2000 µg/mL; in data set [2] (MeOH/THF (1:1), organic solvent or mixture, thermodynamic from solid, solvent MeOH/THF (1:1), read-out: Solubility) it was 14000 to 20000 µg/mL; in data set [2] (MeOH/chloroform (1:1), organic solvent or mixture, thermodynamic from solid, solvent MeOH/chloroform (1:1), read-out: Solubility), 14000 to 20000 µg/mL. Besides, the solubility in data set [2] (acetone, organic solvent or mixture, thermodynamic from solid, solvent Acetone, read-out: Solubility) was less than 2000 µg/mL; in data set [2] (acetonitrile, organic solvent or mixture, thermodynamic from solid, solvent ACN, read-out: Solubility), less than 2000 µg/mL; in data set [2] (chloroform, organic solvent or mixture, thermodynamic from solid, solvent Chloroform, read-out: Solubility), less than 2000 µg/mL; in data set [2] (dichloromethane, organic solvent or mixture, thermodynamic from solid, solvent DCM, read-out: Solubility) it was less than 2000 µg/mL; in data set [2] (dimethylformamide, organic solvent or mixture, thermodynamic from solid, solvent DMF, read-out: Solubility) it was more than 114000 µg/mL; in data set [2] (ethanol, organic solvent or mixture, thermodynamic from solid, solvent EtOH, read-out: Solubility), 3000 to 7000 µg/mL. In addition, the solubility in data set [2] (ethyl acetate, organic solvent or mixture, thermodynamic from solid, solvent EtOAc, read-out: Solubility) is less than 2000 µg/mL; in data set [2] (hexafluoroisopropanol, organic solvent or mixture, thermodynamic from solid, solvent HFIPA (hexafluoroisopropanol), read-out: Solubility) it was more than 128000 µg/mL; in data set [2] (isopropyl alcohol, organic solvent or mixture, thermodynamic from solid, solvent IPA, read-out: Solubility), less than 2000 µg/mL; in data set [2] (methanol, organic solvent or mixture, thermodynamic from solid, solvent MeOH, read-out: Solubility) it was 14000 to 20000 µg/mL; in data set [2] (nitromethane, organic solvent or mixture, thermodynamic from solid, solvent Nitromethane, read-out: Solubility), less than 2000 µg/mL; in data set [2] (solvent ACN), less than 2000 µg/mL. The “solubility” value in data set [2] (solvent Acetone) was less than 2000 µg/mL; in data set [2] (solvent Chloroform), less than 2000 µg/mL; in data set [2] (solvent DCM), less than 2000 µg/mL; in data set [2] (solvent DMF) it was more than 114000 µg/mL; in data set [2] (solvent DMF/water (1:4)) it was less than 2000 µg/mL; in data set [2] (solvent DMF/water (1:9)), less than 2000 µg/mL. Further, the “solubility” value in data set [2] (solvent EtOAc) is less than 2000 µg/mL; in data set [2] (solvent EtOH), 3000 µg/mL; in data set [2] (solvent HFIPA (hexafluoroisopropanol)), more than 128000 µg/mL; in data set [2] (solvent IPA) it was less than 2000 µg/mL; in data set [2] (solvent MeOH) it was 18000 µg/mL; in data set [2] (solvent MeOH/THF (1:1)), 14000 µg/mL. The “solubility” value was 16000 µg/mL in data set [2] (solvent MeOH/chloroform (1:1)); less than 2000 µg/mL in data set [2] (solvent Nitromethane); less than 2000 µg/mL in data set [2] (solvent THF); less than 2000 µg/mL in data set [2] (solvent Toluene); less than 2000 µg/mL in data set [2] (solvent Water); 6000 µg/mL in data set [2] (t-butanol/water (3:1), organic solvent or mixture, thermodynamic from solid, solvent t-Butanol/water (3:1), read-out: Solubility). The solubility in data set [2] (tetrahydrofuran, organic solvent or mixture, thermodynamic from solid, solvent THF, read-out: Solubility) was less than 2000 µg/mL; in data set [2] (toluene, organic solvent or mixture, thermodynamic from solid, solvent Toluene, read-out: Solubility) it was less than 2000 µg/mL; in data set [2] (water, thermodynamic from solid, solvent Water, read-out: Solubility), less than 2000 µg/mL. Further, in data set [3], the “Hygroscopicity (moisture sorption data are consistent with)” value is given as “limited hygroscopic material”. The “Weight loss upon equilibration at ~5% RH” value in data set [3] is approximately 0.3 wt %. In addition, in data set [3], the “Weight gain upon increase in relative humidity” value is 1.0 wt %. Further, in data set [3], the “Weight loss upon decrease in relative humidity” value is given as approximately 1.0 wt %.

Take `Cc1cc(Nc2nc(C(O)c3ccc(F)cc3)nc3ccccc23)n[nH]1` (centres unmarked) [Form B, (4-fluorophenyl)(4-(5-methyl-1H-pyrazol-3-ylamino)quinazolin-2-yl)methanol]: the “Result of vacuum drying (Additional Information)” value (shortened to “Result of vacuum drying”) in data set [1] was “primarily consistent with Form A”. For the same molecule, the “XRPD Results after vacuum drying” value in data set [1] (vacuum at ~60° C. for ~1 day) is recorded as “mixture of Form A with small amount of Form B”.

As to `Cc1cc(Nc2nc(C(O)c3ccc(F)cc3)nc3ccccc23)n[nH]1` (centres unmarked) [Form C, (4-fluorophenyl)(4-(5-methyl-1H-pyrazol-3-ylamino)quinazolin-2-yl)methanol], in data set [1] (listed as C), the “Result of vacuum drying” value is “Forms A and C”. Further, the “XRPD Results after vacuum drying” value in data set [1] (vacuum at ~80° C. for ~1 day) is “mixture of Forms A and C”.

Take `Cc1cc(Nc2nc(C(O)c3ccc(F)cc3)nc3ccccc23)n[nH]1` (centres unmarked) [Form D, (4-fluorophenyl)(4-(5-methyl-1H-pyrazol-3-ylamino)quinazolin-2-yl)methanol]: the “Result of vacuum drying” value in data set [1] (listed as D) is reported as “Form A”. In data set [1] (vacuum at ~40° C. for ~3 days), the “XRPD Results after vacuum drying” value is given as “consistent with Form A”.

`Cc1cc(Nc2nc(C(O)c3ccc(F)cc3)nc3ccccc23)n[nH]1` (centres unmarked) [Form E, (4-fluorophenyl)(4-(5-methyl-1H-pyrazol-3-ylamino)quinazolin-2-yl)methanol]: in data set [3], the “Hygroscopicity (moisture sorption data are consistent with)” value is listed as “limited hygroscopic material”, the “Weight loss upon equilibration at ~5% RH” value is approximately 0.2 wt %, the “Weight gain upon increase in relative humidity” value amounted to 0.6 wt % and the “Weight loss upon decrease in relative humidity” value was approximately 0.6 wt %. In data set [1], the “Result of vacuum drying” value is “remained the same after vacuum”. For the same molecule, the “XRPD Results after vacuum drying” value in data set [1] (vacuum at ~60° C. for ~2 days) is on record as “No changes were observed in the XRPD pattern; also recorded: physically stable; also recorded: Form E”.

Take `Cc1cc(Nc2nc(C(O)c3ccc(F)cc3)nc3ccccc23)n[nH]1` (centres unmarked) [Forms A + B, (4-fluorophenyl)(4-(5-methyl-1H-pyrazol-3-ylamino)quinazolin-2-yl)methanol]: the “XRPD Results after vacuum drying” value in data set [1] (vacuum at ~60° C. for ~1 day) is “Form A +”; in data set [1] (vacuum at ~60° C. for ~2 days, listed as Forms A and B) it was “primarily consistent with Form A with a minor amount of Form B”.
